Patent EP4603105A1, “PHARMACEUTICAL COMPOSITION CONTAINING CYCLIC COMPOUND HAVING SELECTIVE KRAS INHIBITORY EFFECT AGAINST HRAS AND NRAS” (CHUGAI SEIYAKU KABUSHIKI KAISHA, priority 2022, dated 2024)

Experiments:
HRAS wild-type protein = HRAS wild-type protein (Homo sapiens, UniProt P01112); experiment: Binding to HRAS by surface plasmon resonance (SPR), KD and KD ratio to KRAS; conditions: ratio of the KD value with respect to HRAS wild-type protein to the KD value with respect to KRAS
Method in brief: (§1)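 Measured at 30°C: SPR with GDP-loaded, E. coli-expressed biotin-Avi RAS captured (~100–300 RU), ascending 75 s compound injections, HBS pH 7.4 with GDP, MgCl2, 4% DMSO. KD from 1:1 fit.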

[1] = target: GDP-bound KRAS wild-type protein (Homo sapiens, UniProt P01116); experiment: Binding to KRAS by surface plasmon resonance (SPR), dissociation constant KD; conditions: Single Cycle Kinetics, 1:1 binding model
Sequence of GDP-bound KRAS wild-type protein (P01116 1-188 isoform P01116-2): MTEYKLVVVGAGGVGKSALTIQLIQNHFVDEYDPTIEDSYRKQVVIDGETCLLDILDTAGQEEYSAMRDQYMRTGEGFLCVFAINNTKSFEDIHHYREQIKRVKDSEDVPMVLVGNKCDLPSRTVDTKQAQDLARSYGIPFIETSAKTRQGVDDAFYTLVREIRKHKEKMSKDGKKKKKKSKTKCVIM
Method in brief: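 Recombinant RAS proteins bearing a biotinylated Avi tag and loaded with GDP served as the captured ligand, recaptured fresh every cycle. Binding responses were referenced to an uncoated surface and a buffer-only blank cycle. Dissociation constants were obtained by 1:1 model fitting at 30°C.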

[2] = tested on: human lung cancer strain NCI-H441; type: cell-based
Method in brief: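 Signal came from […] measured per well once the reagent was added. Beforehand, cells were cultured at 37°C and 5% carbon dioxide on a compound series serially diluted in dimethyl sulfoxide.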

[3] = target: GDP-bound NRAS wild-type protein (Homo sapiens, UniProt P01111); experiment: Binding to NRAS by surface plasmon resonance (SPR), KD and KD ratio to KRAS; conditions: ratio of the KD value with respect to GDP-bound NRAS wild-type protein to the KD value with respect to KRAS
Sequence of GDP-bound NRAS wild-type protein (P01111 whole entry): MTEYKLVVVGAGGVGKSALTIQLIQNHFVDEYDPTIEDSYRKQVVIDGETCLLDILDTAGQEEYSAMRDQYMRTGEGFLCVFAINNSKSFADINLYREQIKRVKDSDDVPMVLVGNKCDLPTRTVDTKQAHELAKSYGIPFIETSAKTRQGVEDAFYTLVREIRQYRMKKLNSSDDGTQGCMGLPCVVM
Method in brief: as §1

Sequence of HRAS wild-type protein (P01112 whole entry): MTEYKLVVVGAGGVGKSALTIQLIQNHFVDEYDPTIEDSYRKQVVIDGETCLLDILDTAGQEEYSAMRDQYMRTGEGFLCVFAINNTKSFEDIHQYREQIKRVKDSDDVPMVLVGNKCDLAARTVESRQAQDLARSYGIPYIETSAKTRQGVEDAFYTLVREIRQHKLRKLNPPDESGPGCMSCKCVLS

Compound	HRAS /KRAS (HRAS wild-type protein)	Kd [1]	IC50 [2]	NRAS /KRAS [3]
CC[C@H](C)[C@@H]1NC(=O)[C@H](CC(C)C)N(C)C(=O)C[C@@H](C(=O)N(C)C)N(C)C(=O)[C@H](C2CCCC2)N(C)C(=O)C2(CCCC2)NC(=O)[C@@H]2C[C@@H](C)CN2C(=O)[C@H](CCc2cc(F)c(C(F)(F)F)c(F)c2)NC(=O)CN(C)C(=O)[C@H](Cc2ccc(C)cc2)N2CC/C=C\C[C@@H](C2=O)N(C)C(=O)CN(C)C1=O [PP2189]	A (a compound having 10 or more and less than 20 is denoted as A)	0.17 nM	10.5 nM	A (a compound having 10 or more and less than 20 is denoted as A)
CCC[C@H]1C(=O)N[C@@H](C2CCCC2)C(=O)N(C)CC(=O)N(C)[C@H]2C/C=C\CCN(C2=O)[C@@H](Cc2ccc(C)cc2)C(=O)N(C)CC(=O)N[C@@H](CCc2ccc(C(F)(F)F)c(Cl)c2)C(=O)N2C[C@H](OCC)C[C@H]2C(=O)NC2(CC(C)(C)C2)C(=O)N(C)[C@@H](CC(C)C)C(=O)N(C)[C@H](C(=O)N(C)C)CC(=O)N1C [PP2190]	A (a compound having 10 or more and less than 20 is denoted as A)	0.91 nM	84.5 nM	A (a compound having 10 or more and less than 20 is denoted as A)
CC[C@@H]1C[C@H]2C(=O)NC3(CCCC3)C(=O)N(C)[C@@H](C3CCCC3)C(=O)N(C)[C@H](C(=O)N(C)C)CC(=O)N(C)[C@@H](CC(C)C)C(=O)N[C@@H]([C@@H](C)CC)C(=O)N(C)CC(=O)N(C)[C@H]3C/C=C\CCN(C3=O)[C@@H](Cc3ccc(C)cc3)C(=O)N(C)CC(=O)N[C@@H](CCc3cc(F)c(C(F)(F)F)c(F)c3)C(=O)N2C1 [PP2191]	B (a compound having 3 or more and less than 10 is denoted as B)	0.23 nM	91.6 nM	A (a compound having 10 or more and less than 20 is denoted as A)
CCC[C@H]1C(=O)N[C@@H](C2CCCC2)C(=O)N(C)CC(=O)N(C)[C@H]2C/C=C\CCN(C2=O)[C@@H](Cc2ccc(C)cc2)C(=O)N(C)CC(=O)N[C@@H](CCc2ccc(C(F)(F)F)c(Cl)c2)C(=O)N2C[C@H](OCC)C[C@H]2C(=O)NC2(CC(C)(C)C2)C(=O)N(C)[C@@H](CC(F)(F)F)C(=O)N(C)[C@H](C(=O)N(C)C)CC(=O)N1C [PP2192]	A (a compound having 10 or more and less than 20 is denoted as A)	3.3 nM	91.9 nM	A (a compound having 10 or more and less than 20 is denoted as A)
CCC[C@@H]1C[C@H]2C(=O)NC3(CCCC3)C(=O)N(C)[C@@H](C3CCCC3)C(=O)N(C)[C@H](C(=O)N(C)C)CC(=O)N(C)[C@@H](CC(C)C)C(=O)N[C@@H]([C@@H](C)CC)C(=O)N(C)CC(=O)N(C)[C@H]3C/C=C\CCN(C3=O)[C@@H](Cc3ccc(C)cc3)C(=O)N(C)CC(=O)N[C@@H](CCc3cc(F)c(C(F)(F)F)c(F)c3)C(=O)N2C1 [PP2193]	A (a compound having 10 or more and less than 20 is denoted as A)	0.41 nM	33.1 nM	A (a compound having 10 or more and less than 20 is denoted as A)
CCC[C@H]1C(=O)N[C@@H](C(CC)CC)C(=O)N(C)CC(=O)N(C)[C@H]2C/C=C\CCN(C2=O)[C@@H](Cc2ccc(C)cc2)C(=O)N(C)CC(=O)N[C@@H](CCc2ccc(C(F)(F)F)c(Cl)c2)C(=O)N2C[C@H](OCC)C[C@H]2C(=O)NC2(CC(C)(C)C2)C(=O)N(C)[C@@H](CC(C)C)C(=O)N(C)[C@H](C(=O)N(C)C)CC(=O)N1C [PP2202]	A (a compound having 10 or more and less than 20 is denoted as A)	4.9 nM	94.7 nM	A (a compound having 10 or more and less than 20 is denoted as A)
CCCOC[C@H]1C(=O)N[C@@H]([C@@H](C)CC)C(=O)N(C)CC(=O)N(C)[C@H]2C/C=C\CCN(C2=O)[C@@H](Cc2ccc(C)cc2)C(=O)N(C)CC(=O)N[C@@H](CCc2cc(F)c(C(F)(F)F)c(F)c2)C(=O)N2C[C@H](CCC)C[C@H]2C(=O)NC2(CC(C)(C)C2)C(=O)N(C)[C@@H](C2CCCC2)C(=O)N(C)[C@H](C(=O)N(C)C)CC(=O)N1C [PP2203]	A (a compound having 10 or more and less than 20 is denoted as A)	0.34 nM	20.5 nM	A (a compound having 10 or more and less than 20 is denoted as A)
CCC[C@H]1C(=O)N[C@@H]([C@@H](C)CC)C(=O)N(C)CC(=O)N(C)[C@H]2C/C=C\CCN(C2=O)[C@@H](Cc2ccc(C)cc2)C(=O)N(C)CC(=O)N[C@@H](CCc2ccc(C(F)(F)F)c(Cl)c2)C(=O)N2C[C@H](C)C[C@H]2C(=O)NC2(CC(C)(C)C2)C(=O)N(C)[C@@H](C2CCCC2)C(=O)N(C)[C@H](C(=O)N(C)C)CC(=O)N1C [PP2210]	B (a compound having 3 or more and less than 10 is denoted as B)	0.13 nM	6.2 nM	A (a compound having 10 or more and less than 20 is denoted as A)
CCC[C@@H]1C[C@H]2C(=O)NC3(CC(C)(C)C3)C(=O)N(C)[C@@H](C3CCCC3)C(=O)N(C)[C@H](C(=O)N(C)C)CC(=O)N(C)[C@@H](CCC)C(=O)N[C@@H]([C@@H](C)CC)C(=O)N(C)CC(=O)N(C)[C@H]3C/C=C\CCN(C3=O)[C@@H](Cc3ccc(C)cc3)C(=O)N(C)CC(=O)N[C@@H](CCc3ccc(C(F)(F)F)c(Cl)c3)C(=O)N2C1 [PP2214]	A (a compound having 10 or more and less than 20 is denoted as A)	0.3 nM	29.6 nM	A (a compound having 10 or more and less than 20 is denoted as A)
CCC[C@H]1C(=O)N[C@@H]([C@@H](C)CC)C(=O)N(C)CC(=O)N(C)[C@H]2C/C=C\CCN(C2=O)[C@@H](Cc2ccc(C)cc2)C(=O)N(C)CC(=O)N[C@@H](CCc2cc(F)c(C(F)(F)F)c(F)c2)C(=O)N2C[C@H](CC)C[C@H]2C(=O)NC2(CCCC2)C(=O)N(C)[C@@H](C2CCCC2)C(=O)N(C)[C@H](C(=O)N(C)C)CC(=O)N1C [PP2216]	A (a compound having 10 or more and less than 20 is denoted as A)	0.23 nM	50.8 nM	A (a compound having 10 or more and less than 20 is denoted as A)
CCCOC[C@H]1C(=O)N[C@@H]([C@@H](C)CC)C(=O)N(C)CC(=O)N(C)[C@H]2C/C=C\CCN(C2=O)[C@@H](Cc2ccc(C)cc2)C(=O)N(C)CC(=O)N[C@@H](CCc2cc(F)c(C(F)(F)F)c(F)c2)C(=O)N2C[C@H](CC)C[C@H]2C(=O)NC2(CCCC2)C(=O)N(C)[C@@H](C2CCCC2)C(=O)N(C)[C@H](C(=O)N(C)C)CC(=O)N1C [PP2218]	A (a compound having 10 or more and less than 20 is denoted as A)	0.29 nM	24 nM	A (a compound having 10 or more and less than 20 is denoted as A)
CCC[C@H]1C(=O)N[C@@H]([C@H](C)CC)C(=O)N(C)CC(=O)N(C)[C@H]2C/C=C\CCN(C2=O)[C@@H](Cc2ccc(C)cc2)C(=O)N(C)CC(=O)N[C@@H](CCc2ccc(C(F)(F)F)c(Cl)c2)C(=O)N2C[C@H](OCC)C[C@H]2C(=O)NC2(CC(C)(C)C2)C(=O)N(C)[C@@H](CC(C)(C)C)C(=O)N(C)[C@H](C(=O)N(C)C)CC(=O)N1C [PP2219]	A (a compound having 10 or more and less than 20 is denoted as A)	1.6 nM	50.9 nM	A (a compound having 10 or more and less than 20 is denoted as A)
CC[C@@H]1C[C@H]2C(=O)NC3(CCC3)C(=O)N(C)[C@@H](C3CCCC3)C(=O)N(C)[C@H](C(=O)N(C)C)CC(=O)N(C)[C@@H](CC(C)C)C(=O)N[C@@H]([C@@H](C)CC)C(=O)N(C)CC(=O)N(C)[C@H]3C/C=C\CCN(C3=O)[C@@H](Cc3ccc(C)cc3)C(=O)N(C)CC(=O)N[C@@H](CCc3cc(F)c(C(F)(F)F)c(F)c3)C(=O)N2C1 [PP2220]	A (a compound having 10 or more and less than 20 is denoted as A)	0.14 nM	32.1 nM	A (a compound having 10 or more and less than 20 is denoted as A)
CCC[C@H]1C(=O)N[C@@H]([C@H](C)CC)C(=O)N(C)CC(=O)N(C)[C@H]2C/C=C\CCN(C2=O)[C@@H](Cc2ccc(C)cc2)C(=O)N(C)CC(=O)N[C@@H](CCc2ccc(C(F)(F)F)c(Cl)c2)C(=O)N2C[C@H](OCC)C[C@H]2C(=O)NC2(CC(C)(C)C2)C(=O)N(C)[C@@H](C2CCCC2)C(=O)N(C)[C@H](C(=O)N(C)C)CC(=O)N1C [PP2221]	A (a compound having 10 or more and less than 20 is denoted as A)	1.7 nM	40.5 nM	A (a compound having 10 or more and less than 20 is denoted as A)
CC[C@H](C)[C@@H]1NC(=O)[C@H](CC(C)C)N(C)C(=O)C[C@@H](C(=O)N(C)C)N(C)C(=O)[C@H](C2CCCC2)N(C)C(=O)C2(CC(C)(C)C2)NC(=O)[C@@H]2C[C@@H](C)CN2C(=O)[C@H](CCc2cc(F)c(C(F)(F)F)c(F)c2)NC(=O)CN(C)C(=O)[C@H](Cc2ccc(C)cc2)N2CC/C=C\C[C@@H](C2=O)N(C)C(=O)CN(C)C1=O [PP2223]	A (a compound having 10 or more and less than 20 is denoted as A)	0.1 nM	5.3 nM	A (a compound having 10 or more and less than 20 is denoted as A)
CCCOC[C@H]1C(=O)N[C@@H]([C@@H](C)CC)C(=O)N(C)CC(=O)N(C)[C@H]2C/C=C\CCN(C2=O)[C@@H](Cc2ccc(C)cc2)C(=O)N(C)CC(=O)N[C@@H](CCc2cc(F)c(C(F)(F)F)c(F)c2)C(=O)N2C[C@H](C)C[C@H]2C(=O)NC2(CCCC2)C(=O)N(C)[C@@H](C2CCCC2)C(=O)N(C)[C@H](C(=O)N(C)C)CC(=O)N1C [PP2225]	A (a compound having 10 or more and less than 20 is denoted as A)	0.2 nM	41.4 nM	A (a compound having 10 or more and less than 20 is denoted as A)
